# Measured values: patent US10023565B2, “N,N′ substituted piperidinamine compounds, and preparation method and usage thereof” (Institute of Pharmacology and Toxicology Academy of …, priority 2013, dated 2018)
# Experiments:
# BT/Lap^R1.0 = test: Antitumor bioactivity evaluation, breast cancer cells (ATPlite); format: cell-based, human; conditions: Homo sapiens
# Summary of the method: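 Survival rate was calculated as experimental over control RLU ×100% from an ATPlite luminescence read. Treatment ran 72 h at 37 °C with 5 μM compound, single agent or combined with 1 μM lapatinib.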
# [1] = tested on: six human breast cancer cell strains; test: Antitumor activity evaluation, statements on the whole panel; format: cell-based; conditions: compound alone
# Description: In antitumor activity evaluation, six human breast cancer cell strains are selected, including BT474, SK-BR3 which are human breast cancer cell strains sensitive to lapatinib, BT/Lap^R1.0, SK/Lap^R1.0 which are human breast cancer cell strains with secondary resistance to lapatinib, MDA-MB-361, MDA-MB-453 which are human breast cancer cell strains with natural resistance tolapatinib.
# Antitumor bioactivity evaluation of the compounds of Examples according to the method described below
# Cells plating: a 100 mm culture dish with overgrown adherent cells was digested with 1 ml 0.25% trypsin (GIBCO) at 37° C. for 5 min, and the reaction was terminated with 2 ml culture medium (containing 10% FBS, GIBCO). The cells were scattered and collected, after counting, diluted to 1×10^5 cells/ml, and seeded into a 96-well plate at 50 μl/well, 5000 cells/well, excluding the peripheral circle of wells in which no cell was added, but PBS was added, 60 wells in total, and then incubated at 37° C. for 24 hours for adhering.
# Addition of the compound and lapatinib: the test sample was diluted to a final concentration of 5 μM, and the culture medium with the corresponding compound solvent concentration was filled in the control well, the compound solvent concentration was kept consistent in each well, 5 parellel wells were set for each concentration, 25 μl each well, 25 μl culture medium (in combined group, 25 μl lapatinib was added till a final concentration of 1 μM) supplemented, followed by incubation at 37° C. for 72 hours.
# Test after incubation at 37° C. for 72 hours: 50 μL of ATPlite kit substrate solution was added in each well, and vibrated for 3 min, followed by placing aside in darkness for 10 min, and then supernatant 100 μl/well was taken and placed on aluminescence test plate; the luminescence test plate that has been fully incubated was placed in a luminescence test instrument, to read luminescence value.
# 1. Cell survival rate (%)=Experimental group RLU/control group RLU×100%. The experimental data were subjected to data analysis and processing by utilizing GraphPad software.
# A549 = test: Extended test against tumor cell lines (ATPlite); format: cell-based; conditions: A549 (lung cancer), 72 hours
# Procedure: (§1) The compounds of Examples 36/37/40/47/49 were used to carry out extended test against tumor cell lines, wherein 12 kinds of cells were selected, including liver cancer cells, gastric cancer cells, pancreatic cancer cells, colorectal cancer cells, lung cancer cells and normal cells, which were shown in Table 12:
# (§2) A 100 mm culture dish with overgrown adherent cells was digested with 1 ml 0.25% trypsin (GIBCO) at 37° C. for 5 min, and the reaction was terminated with 2 ml culture medium (containing 10% FBS, GIBCO). The cells were scattered and collected, after counting, diluted to 1×10^5 cells/ml, and seeded into a 96-well plate at 50 μl/well, 5000 cells/well, excluding the peripheral circle of wells in which no cell was added, but PBS was added, 54 wells in total, and then incubated at 37° C. for 24 hours for adhering.
# (§3) The test sample was diluted to final concentration of 4, 1, 0.25, 0.063, 0.016 μM, culture medium was filled in control well, 3 parellel wells were set for each concentration, 50 μl each well, followed by incubation at 37° C. for 72 hours.
# (§4) 3) Test after incubation at 37° C. for 72 hours: 50 μL of ATPlite kitsubstrate solution was added in each well, and vibrated for 3 min, followed by placing aside in darkness for 10 min, and then supernatant 100 μl/well was taken and placed on a luminescence test plate; the luminescence test plate that has been fully incubated was placed in a luminescence test instrument, to read luminescence value.
# (§5) Cell survival rate (%)=Experimental group RLU/control group RLU×100%. The experimental data were subjected to data analysis and processing by utilizing GraphPad software.
# AsPC-1 = test: Extended test against tumor cell lines (ATPlite); format: cell-based; conditions: AsPC-1 (pancreatic cancer), 72 hours
# Procedure: as §1, §2, §3, §4, §5
# COLO205 = test: Extended test against tumor cell lines (ATPlite); format: cell-based; conditions: COLO205 (colorectal cancer), 72 hours
# Procedure: as §1, §2, §3, §4, §5
# H460 = test: Extended test against tumor cell lines (ATPlite); format: cell-based; conditions: H460 (lung cancer), 72 hours
# Procedure: as §1, §2, §3, §4, §5
# HT-29 = test: Extended test against tumor cell lines (ATPlite); format: cell-based; conditions: HT-29 (colorectal cancer), 72 hours
# Procedure: as §1, §2, §3, §4, §5
# HepG2 = test: Extended test against tumor cell lines (ATPlite); format: cell-based; conditions: HepG2 (liver cancer), 72 hours
# Procedure: as §1, §2, §3, §4, §5
# Huh-7 = test: Extended test against tumor cell lines (ATPlite); format: cell-based; conditions: Huh-7 (liver cancer), 72 hours
# Procedure: as §1, §2, §3, §4, §5
# MIA-PaCa-2 = test: Extended test against tumor cell lines (ATPlite); format: cell-based; conditions: MIA-PaCa-2 (pancreatic cancer), 72 hours
# Procedure: as §1, §2, §3, §4, §5
# [2] = tested on: MRC5 (lung epithelial fibroblast); test: Extended test against tumor cell lines (ATPlite); format: cell-based; conditions: MRC5 (normal cells), 72 hours
# Procedure: as §1, §2, §3, §4, §5
# [3] = tested on: WI-38 (human embryonic lung fibroblast); test: Extended test against tumor cell lines (ATPlite); format: cell-based; conditions: WI-38 (normal cells), 72 hours
# Procedure: as §1, §2, §3, §4, §5
# [4] = tested on: tumor cells and normal cells (12 kinds of cells); test: Extended test against tumor cell lines, statements on the whole panel; format: cell-based; conditions: 12 kinds of cells, 0.016-4 μM, 72 hours
# Procedure: as §1, §2, §3, §4, §5
compound,measurement,setting,value
"CSc1nccc(N2CCC(N(C)Cc3c(F)cccc3Cl)CC2)n1 [Example 37, N-methyl-N-(2-fluoro-6-chlorobenzyl)-N-[1-(2-methylthiopyrimidin-4-yl)piperidin-4-yl]amine]",IC50,BT/Lap^R1.0,940 nM
same,inhibition at 5 µM,"BT/Lap^R1.0; test sample 5 μM, 72 hours, read-out: Inhibitory Rate % BT/Lap^R1.0",70.7%
same,growth inhibition to the six human breast cancer cell strains,[1],relatively significant growth inhibition
same,Survival rate,A549; 0.016 μM,99.5%
same,Survival rate,A549; 0.063 μM,98.5%
same,Survival rate,A549; 0.25 μM,97.6%
same,Survival rate,A549; 1 μM,73%
same,Survival rate,A549; 4 μM,39.5%
same,Survival rate,AsPC-1; 0.016 μM,98.8%
same,Survival rate,AsPC-1; 0.063 μM,99.5%
same,Survival rate,AsPC-1; 0.25 μM,94.1%
same,Survival rate,AsPC-1; 1 μM,81.7%
same,Survival rate,AsPC-1; 4 μM,52.3%
same,Survival rate,COLO205; 0.016 μM,100.1%
same,Survival rate,COLO205; 0.063 μM,97.5%
same,Survival rate,COLO205; 0.25 μM,100.4%
same,Survival rate,COLO205; 1 μM,94.5%
same,Survival rate,COLO205; 4 μM,12.9%
same,Survival rate,H460; 0.016 μM,97.7%
same,Survival rate,H460; 0.063 μM,97.9%
same,Survival rate,H460; 0.25 μM,92.3%
same,Survival rate,H460; 1 μM,63.1%
same,Survival rate,H460; 4 μM,22%
same,Survival rate,HT-29; 0.016 μM,99.3%
same,Survival rate,HT-29; 0.063 μM,97.4%
same,Survival rate,HT-29; 0.25 μM,94.4%
same,Survival rate,HT-29; 1 μM,82.1%
same,Survival rate,HT-29; 4 μM,33.8%
same,Survival rate,HepG2; 0.016 μM,97.1%
same,Survival rate,HepG2; 0.063 μM,92.3%
same,Survival rate,HepG2; 0.25 μM,78.1%
same,Survival rate,HepG2; 1 μM,45.7%
same,Survival rate,HepG2; 4 μM,5.6%
same,Survival rate,Huh-7; 0.016 μM,91.9%
same,Survival rate,Huh-7; 0.063 μM,86.7%
same,Survival rate,Huh-7; 0.25 μM,82.3%
same,Survival rate,Huh-7; 1 μM,46.7%
same,Survival rate,Huh-7; 4 μM,14.9%
same,Survival rate,MIA-PaCa-2; 0.016 μM,97.6%
same,Survival rate,MIA-PaCa-2; 0.063 μM,97.5%
same,Survival rate,MIA-PaCa-2; 0.25 μM,91.5%
same,Survival rate,MIA-PaCa-2; 1 μM,61.9%
same,Survival rate,MIA-PaCa-2; 4 μM,16%
same,Survival rate,[2]; 0.016 μM,97.3%
same,Survival rate,[2]; 0.063 μM,99.5%
same,Survival rate,[2]; 0.25 μM,93.5%
same,Survival rate,[2]; 1 μM,90.4%
same,Survival rate,[2]; 4 μM,65.3%
same,Survival rate,[3]; 0.016 μM,98.6%
same,Survival rate,[3]; 0.063 μM,99.2%
same,Survival rate,[3]; 0.25 μM,95.5%
same,Survival rate,[3]; 1 μM,89.7%
same,Survival rate,[3]; 4 μM,65.6%
same,inhibition of tumor cells versus cytotoxicity to normal cells,[4],"slightly stronger inhibition to liver cancer than that to other tumor cells, and exhibited cytotoxicity to normal cells lower than inhibition to tumor cells"
